One assay has as its system HCT-116. Briefly: Antiproliferative activity against human HCT116 cells measured after 48 hrs by MTT assay. Format: functional, cell-based. Conditions: HCT-116, 48 h.
A further assay deals with HL-60. The experiment in a line: Antiproliferative activity against human HL60 cells measured after 48 hrs by WST1 assay. Format: functional, cell-based. Conditions: HL-60, 48 h. For orientation: Tetrazolium assays rely on reduction of a dye to a coloured formazan, in cell work by metabolically active cells.

The record followed here is ChEMBL document CHEMBL4138075, “Concise synthesis and antiproliferative activity evaluation of ellipticine quinone and its analogs” (Eur J Med Chem, 2017).

The structures appear in SMILES notation. pIC50: −log10 of the molar value. Where only a bound is given, the exact number is not on record here.

As to `O=C1c2ccncc2C(=O)c2c1[nH]c1ccccc21`, the pIC50 in the assay with HCT-116 is 6.06; in the assay on HL-60, 5.48.
Consider `O=C1c2ccncc2C(=O)c2c1[nH]c1cc(C(F)(F)F)ccc21`, for which the pIC50 is 5.34 in the assay on HCT-116 and less than 5.00 with HL-60.
For `O=C1c2ccncc2C(=O)c2c1[nH]c1ccc([N+](=O)[O-])cc21` the same measures were 6.73 and 5.87.
Taken in the same sequence, the figures for `O=C1c2ccncc2C(=O)c2c1[nH]c1ccc(Cl)cc21` were 5.86 and 5.41.
For `COc1ccc2c3c([nH]c2c1)C(=O)c1ccncc1C3=O`, the pIC50 was 5.50 in the assay with HCT-116 and 5.05 in the assay with HL-60.
Consider `O=C1c2ccncc2C(=O)c2c1[nH]c1cc(Cl)ccc21`, for which the pIC50 with HCT-116 is 5.39; with HL-60, less than 5.00.
Taken in the same sequence, the figures for `O=C1c2ccncc2C(=O)c2c1[nH]c1ccc(C(F)(F)F)cc21` were 5.78 and 5.29.
Taken in the same sequence, the figures for `Cc1ccc2[nH]c3c(c2c1)C(=O)c1cnccc1C3=O` were 6.07 and 5.37.
For `O=C1c2ccncc2C(=O)c2c1[nH]c1cc([N+](=O)[O-])ccc21` the same measures were 5.90 and 5.35.
Consider `Cc1ccc2c3c([nH]c2c1)C(=O)c1ccncc1C3=O`, for which the results for the pIC50 in the assay on HCT-116 and with HL-60 were 5.24 and less than 5.00, respectively.
For `COc1cc2[nH]c3c(c2cc1OC)C(=O)c1cnccc1C3=O` the same measures were 5.43 and 5.13.
For `O=C1c2ccncc2C(=O)c2c1[nH]c1ccc(F)cc21` the same measures were 5.95 and 5.35.
For `O=C1c2ccncc2C(=O)c2c1[nH]c1cc(F)ccc21` the same measures were 5.80 and 5.35.
In the case of `COc1ccc2[nH]c3c(c2c1)C(=O)c1cnccc1C3=O`, the pIC50 was 5.27 with HCT-116 and less than 5.00 in the assay on HL-60.
On to `CC[C@@]1(O)C(=O)OCc2c1cc1n(c2=O)Cc2cc3ccccc3nc2-1` [CAMPTOTHECIN], for which the negative-log IC50 (pIC50) in the assay with HCT-116 is 6.80; with HL-60 it was 7.72.

The pIC50 is −log10 of the IC50, conventionally taken in molar units.
